# Measurements as given in patent publication US20240382626A1, “IRRADIATION AMENABLE LIPOSOMAL DYE AGGREGATES AND METHODS OF SYNTHESIS AND USE THEREOF” (Board of Regents, The University of Texas System, priority 2023, published 2024).
# Entries after “also recorded” stand apart in the source; their conditions may differ.
# Assays:
# [1] = Photostability during pulsed-laser photoacoustic imaging; assay type: physicochemical
# Experimental: All photoacoustic imaging was performed using the VEVO LAZR-X and F2 Systems (FUJIFILM VisualSonics, Toronto, Canada). The system was calibrated per manufacturer instructions prior to all experiments. Equal concentrations of IcG, IcG-JA, and L-JA were loaded into the plastic tubes before coupling the imaging phantom to the transducer with ultrasound gel. For base characterization, a full spectral scan from 680 nm to 970 nm was performed. Photostability measurements were obtained by imaging at either 800 nm or 890 nm for 30 minutes. At five-minute intervals, which equated to nearly every 1400 pulses (˜280 pulses per minute), the scan was paused to allow for a full spectral scan to be performed. RAW data files from the system were exported and were analyzed using custom software written in MATLAB.
# [2] = tested on: HUVECs; experiment: MTS cytotoxicity assay; assay type: cell-based; conditions: 24 hr incubation, p<0.05
# Experimental: The cytotoxicity of L-JA, IcG-JA, and IcG was evaluated on HUVECs and HEK-293T cell lines. The HUVECs were cultured in MCDB-131 medium supplemented with 10% (v/v) fetal bovine serum, 1% L-glutamine, 1% penicillin-streptomycin, and 1% endothelial cell growth supplement. The HEK-293T cells were cultured in Dulbecco's modified Eagle medium (DMEM) supplemented with 10% (v/v) fetal bovine serum and 1% penicillin-streptomycin. Both cell lines were incubated at 37° C. with 5% CO2 in a humidified atmosphere. The HUVEC and HEK-293T cells were seeded at the density of 10,000 cells per well and 5,000 cells per well in 96 well plates. After 24 hours, the culture media was replaced with fresh media containing L-JA, IcG-JA, and IcG at the concentration of 0.25 mM, 0.2 mM, 0.1 mM, and 0.05 mM. Cells incubated without particles were used as a control group. After 24 hours, the culture media was replaced with […] of fresh media. 20 μl of a mixture of [3-(4,5-dimethylthiazol-2-yl)-5-(3-carboxymethoxyphenyl)-2-(4-sulfophenyl)-2H-tetrazolium] (MTS) and phenazine ethosulfate (PES) was then added to each well. The cells were further incubated for 4 hours at 37° C. The absorbance signal at 490 nm was measured using a BioTek plate reader.
# [3] = In vitro photothermal heating with 808 nm and 852 nm lasers; conditions: 808 nm laser
# Text: To assess the heating capacity of IcG and L-JA solutions, two different laser setups were utilized. All laser components including diodes, mounts, fiber optic cables, lens, and adapters were acquired from ThorLabs (Thorlabs Inc., Newton, NJ, USA) Two different laser diodes, one 808 nm the other 852 nm, were mounted, aligned, and focused in view of a high-resolution IR camera and tracked using accompanying software (Teledyne FLIR, Wilsonville, OR, USA). The 852 nm laser system included an optical isolator (ThorLabs) in the light path as recommended by the manufacturer, but otherwise the systems were identical. Laser power was calibrated to 1 W/cm^2 for both lasers and across all experiments. All experiments were conducted in 24- or 96-well plates filled with corresponding contrast agent solutions placed at the focus of the laser and IR camera.
# [4] = tested on: mouse kidney and surrounding tissue; experiment: In vivo contrast enhancement and circulation by photoacoustic imaging; set-up: species or system mice; conditions: systemic administration
# Text: Particle circulation was monitored by imaging the mouse kidney and surrounding tissue. The kidney is a high blood flow organ that has the distinct advantage of being easily and rapidly identifiable using ultrasound imaging. Simple setup and identification decreases the amount of time animals are under anesthesia and limits any potential artificial lowering of SO2 due to prolonged exposure to anesthetic agents. Once prepped, mice placed in the imaging system were imaged with power-doppler to confirm blood flow and baseline values for SO2 and contrast agent signals (FIG. 13). Following a bolus injection of a 5 mg/kg dose of contrast agent via the tail vein, the same region was monitored at varying time points. After processing with FUJIFILM VisualSonics' proprietary spectral unmixing software the images were analyzed using in-house MATLAB software. Power-doppler images guide the placement of ROIs around areas of high blood flow allowing isolation and calculation of SO2 and contrast agent signal over the course of imaging.
# To assess their performance in vivo, particles were injected intravenously via the tail vein. Particle circulation was monitored by imaging the mouse kidney and surrounding tissue. […] Following a bolus injection of contrast agent via the tail vein, the same region was monitored at multiple time points. […]
smiles,measurement,setting,value
"CC1(C)C(/C=C/C=C/C=C/C=C2\N(CCCCS(=O)(=O)O)c3ccc4ccccc4c3C2(C)C)=[N+](CCCCS(=O)(=O)[O-])c2ccc3ccccc3c21 [IcG, Indocyanine Green]",time until PA signal fully quenches,[1]; 800 nm laser pulses,25 min
same,photoacoustic signal drop,"[1]; 800 nm laser pulses, just under 5 pulses per second, after just over 5 minutes / between 5 and 10 minutes",more than 50%
same,photodegradation (in words),[1]; 30 minutes of imaging at 800 nm,completely photodegraded
same,concentration at which significant cytotoxicity relative to control occurs,[2],0.2 mM
same,behaviour on repeated (cyclic) laser heating (in words),[3],can only be heated once
same,clearance / circulation (in words),[4],cleared from circulation within an hour; also recorded: fully cleared over the course of a few minutes
